The term EC50 denotes the concentration at which the effect is half-maximal. One may read the CC50 as the concentration giving 50% cytotoxicity. High values mean lower toxicity to the cells, low ones greater toxicity to the cells.

The test system of one series is HBV in 2.2.15 cells. Nature of the series: 2.2.15 cells: viral product in cell lysates quantified via quantitative real time PCR. The format is cell-based, hepatitis B virus (HBV). The note with it: Hepatitis B virus, 120 h, day 5 post treatment, 50% reduction of viral product vs no drug controls, readout (qPCR, HBsAg or HBeAg) not specified for the column. In short, it runs like this:
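2.2.15 cells (35,000/well, DMEM/F12, 10% FBS, G418) were treated with 5-fold serial compound dilutions, 0.5% DMSO final. After 5 days, lysates were quantified by qPCR, or supernatant HBsAg/HBeAg by ELISA; EC50 is the concentration giving 50% reduction versus no-drug controls.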

A short description of series [1]: Compound induced cellular toxicity in HepG2 cells, ATPlite 1Step. Type of series: cell-based. The note with it: human, three days exposure, 50% reduction of total ATP vs no drug controls. Here is the method: At day 3, post seeding cells are treated with ATPlite 1Step according to the manufacturer's instructions.

Where only a bound is given, the exact number is not on record here.

Turning to `Cc1cc(-c2cc3n(n2)C[C@@H](C(C)(C)C)n2cc(C(=O)O)c(=O)cc2-3)c(F)cc1F` [Example 39, (R)-6-(tert-butyl)-2-(2,4-difluoro-5-methylphenyl)-10-oxo-5,6-dihydro-10H-pyrazolo[1,5-a]pyrido[2,2-c]pyrazine-12-carboxylic acid], the half-maximal effective concentration (EC50) in the series on HBV in 2.2.15 cells was less than 100 nM. Also, in series [1], the CC50 at 3 days was greater than 25 µM.
`CC(C)(C)[C@@H]1Cn2nc(-c3ccccc3C#N)cc2-c2cc(=O)c(C(=O)O)cn21` [Example 40, (R)-6-(tert-butyl)-2-(2-cyanophenyl)-10-oxo-5,6-dihydro-10H-pyrazolo[1,5-a]pyrido[2,2-c]pyrazine-12-carboxylic acid] yielded an EC50 in the series on HBV in 2.2.15 cells of less than 100 nM. Also, the CC50 at 3 days in series [1] was greater than 25 µM.
On the same counts, the results for `CC(C)(C)[C@@H]1Cn2nc(-c3ccncc3F)cc2-c2cc(=O)c(C(=O)O)cn21` [Example 41, (R)-6-(tert-butyl)-2-(3-fluoropyridin-4-yl)-10-oxo-5,6-dihydro-10H-pyrazolo[1,5-a]pyrido[2,2-c]pyrazine-12-carboxylic acid] are less than 100 nM and greater than 25 µM.
In the case of `CC(C)(C)[C@@H]1Cn2nc(-c3cc(F)ccc3C#N)cc2-c2cc(=O)c(C(=O)O)cn21` [Example 42, (R)-6-(tert-butyl)-2-(2-cyano-5-fluorophenyl)-10-oxo-5,6-dihydro-10H-pyrazolo[1,5-a]pyrido[2,2-c]pyrazine-12-carboxylic acid], the EC50 with HBV in 2.2.15 cells is less than 100 nM. For the same compound, the CC50 at 3 days in series [1] is greater than 25 µM.
Turning to `CC(C)(C)[C@@H]1Cn2nc(-c3cccc4c3OCCCO4)cc2-c2cc(=O)c(C(=O)O)cn21` [Example 43, (R)-6-(tert-butyl)-2-(3,4-dihydro-2H-benzo[b][1,4]dioxepin-6-yl)-10-oxo-5,6-dihydro-10H-pyrazolo[1,5-a]pyrido[2,2-c]pyrazine-12-carboxylic acid], the 50% effective concentration (EC50) with HBV in 2.2.15 cells was less than 100 nM. For the same compound, the CC50 at 3 days in series [1] was greater than 25 µM.
In the case of `CC(C)(C)[C@@H]1Cn2nc(-c3ccc(F)c(F)c3F)cc2-c2cc(=O)c(C(=O)O)cn21` [Example 44, (R)-6-(tert-butyl)-10-oxo-2-(2,3,4-trifluorophenyl)-5,6-dihydro-10H-pyrazolo[1,5-a]pyrido[2,2-c]pyrazine-12-carboxylic acid], the EC50 in the series with HBV in 2.2.15 cells was less than 100 nM. This compound also showed a CC50 at 3 days in series [1] greater than 25 µM.
Compound `COc1cccc(-c2cc3n(n2)C[C@@H](C(C)(C)C)n2cc(C(=O)O)c(=O)cc2-3)c1C#N` [Example 45, (R)-6-(tert-butyl)-2-(2-cyano-3-methoxyphenyl)-10-oxo-5,6-dihydro-10H-pyrazolo[1,5-a]pyrido[2,2-c]pyrazine-12-carboxylic acid] returned an EC50 in the series with HBV in 2.2.15 cells of less than 100 nM. In series [1], this compound had a cytotoxic concentration (CC50) at 3 days greater than 25 µM.
For the compound `CC(C)(C)[C@@H]1Cn2nc(-c3ccccc3O)cc2-c2cc(=O)c(C(=O)O)cn21` [Example 46, (R)-6-(tert-butyl)-2-(2-hydroxyphenyl)-10-oxo-5,6-dihydro-10H-pyrazolo[1,5-a]pyrido[2,2-c]pyrazine-12-carboxylic acid], the EC50 in the series on HBV in 2.2.15 cells is less than 100 nM. Further, the CC50 at 3 days in series [1] is greater than 25 µM.
The matching figures for `CC(C)(C)[C@@H]1Cn2nc(-c3c(O)cccc3F)cc2-c2cc(=O)c(C(=O)O)cn21` [Example 47, (R)-6-(tert-butyl)-2-(2-fluoro-6-hydroxyphenyl)-10-oxo-5,6-dihydro-10H-pyrazolo[1,5-a]pyrido[2,2-c]pyrazine-12-carboxylic acid]: less than 100 nM and greater than 25 µM.
The matching figures for `CCOc1ccccc1-c1cc2n(n1)C[C@@H](C(C)(C)C)n1cc(C(=O)O)c(=O)cc1-2` [Example 48, (R)-6-(tert-butyl)-2-(2-ethoxyphenyl)-10-oxo-5,6-dihydro-10H-pyrazolo[1,5-a]pyrido[2,2-c]pyrazine-12-carboxylic acid]: less than 100 nM and greater than 25 µM.
Take `COc1cccc(C)c1-c1cc2n(n1)C[C@@H](C(C)(C)C)n1cc(C(=O)O)c(=O)cc1-2` [Example 49, (R)-6-(tert-butyl)-2-(2-methoxy-6-methylphenyl)-10-oxo-5,6-dihydro-10H-pyrazolo[1,5-a]pyrido[2,2-c]pyrazine-12-carboxylic acid]: the EC50 in the series on HBV in 2.2.15 cells lay in the range of 200 to 1000 nM. The half-maximal cytotoxic concentration (CC50) at 3 days in series [1] was greater than 25 µM.
With `COc1cccc(F)c1-c1cc2n(n1)C[C@@H](C(C)(C)C)n1cc(C(=O)O)c(=O)cc1-2` [Example 50, (R)-6-(tert-butyl)-2-(2-fluoro-6-methoxyphenyl)-10-oxo-5,6-dihydro-10H-pyrazolo[1,5-a]pyrido[2,2-c]pyrazine-12-carboxylic acid], the EC50 with HBV in 2.2.15 cells is 200 to 1000 nM. The CC50 at 3 days in series [1] was greater than 25 µM.
Turning to `Cc1cccc(F)c1-c1cc2n(n1)C[C@@H](C(C)(C)C)n1cc(C(=O)O)c(=O)cc1-2` [Example 51, (R)-6-(tert-butyl)-2-(2-fluoro-6-methylphenyl)-10-oxo-5,6-dihydro-10H-pyrazolo[1,5-a]pyrido[2,2-c]pyrazine-12-carboxylic acid], in the series on HBV in 2.2.15 cells, the EC50 was 200 to 1000 nM. This compound also showed a CC50 at 3 days in series [1] greater than 25 µM.
The matching figures for `COc1cccc(C(N)=O)c1-c1cc2n(n1)C[C@@H](C(C)(C)C)n1cc(C(=O)O)c(=O)cc1-2` [Example 52, (R)-6-(tert-butyl)-2-(2-carbamoyl-6-methoxyphenyl)-10-oxo-5,6-dihydro-10H-pyrazolo[1,5-a]pyrido[2,2-c]pyrazine-12-carboxylic acid]: 200 to 1000 nM and greater than 25 µM.
With `CC(C)(C)[C@@H]1Cn2nc(-c3c(F)cccc3C(N)=O)cc2-c2cc(=O)c(C(=O)O)cn21` [Example 53, (R)-6-(tert-butyl)-2-(2-carbamoyl-6-fluorophenyl)-10-oxo-5,6-dihydro-10H-pyrazolo[1,5-a]pyrido[2,2-c]pyrazine-12-carboxylic acid], the EC50 with HBV in 2.2.15 cells is 200 to 1000 nM. In addition, the CC50 at 3 days in series [1] was greater than 25 µM.
Compound `CC(C)(C)[C@@H]1Cn2nc(-c3c(F)ccc4c3OCO4)cc2-c2cc(=O)c(C(=O)O)cn21` [Example 54, (R)-6-(tert-butyl)-2-(5-fluorobenzo[d][1,3]dioxol-4-yl)-10-oxo-5,6-dihydro-10H-pyrazolo[1,5-a]pyrido[2,2-c]pyrazine-12-carboxylic acid] registered an EC50 in the series on HBV in 2.2.15 cells of less than 100 nM. Also, in series [1], the cytotoxic concentration (CC50) at 3 days is greater than 25 µM.
On the same counts, the results for `CC(C)(C)[C@@H]1Cn2nc(-c3ccc4c(c3F)OCO4)cc2-c2cc(=O)c(C(=O)O)cn21` [Example 55, (R)-6-(tert-butyl)-2-(4-fluorobenzo[d][1,3]dioxol-5-yl)-10-oxo-5,6-dihydro-10H-pyrazolo[1,5-a]pyrido[2,2-c]pyrazine-12-carboxylic acid] are less than 100 nM and greater than 25 µM.
On the same counts, the results for `COc1ccc(O)c(-c2cc3n(n2)C[C@@H](C(C)(C)C)n2cc(C(=O)O)c(=O)cc2-3)c1` [Example 56, (R)-6-(tert-butyl)-2-(2-hydroxy-5-methoxyphenyl)-10-oxo-5,6-dihydro-10H-pyrazolo[1,5-a]pyrido[2,2-c]pyrazine-12-carboxylic acid] are less than 100 nM and greater than 25 µM.
The compound `CC(C)(C)[C@@H]1Cn2nc(-c3cccc4c3OCCO4)cc2-c2cc(=O)c(C(=O)O)cn21` [Example 57, (R)-6-(tert-butyl)-2-(2,3-dihydrobenzo[b][1,4]dioxin-5-yl)-10-oxo-5,6-dihydro-10H-pyrazolo[1,5-a]pyrido[2,2-c]pyrazine-12-carboxylic acid] had an EC50 in the series with HBV in 2.2.15 cells of less than 100 nM. The CC50 at 3 days in series [1] is greater than 25 µM.
`CC(C)(C)[C@@H]1Cn2nc(-c3cccc4nonc34)cc2-c2cc(=O)c(C(=O)O)cn21` [Example 58, (R)-2-(benzo[c][1,2,5]oxadiazol-4-yl)-6-(tert-butyl)-10-oxo-5,6-dihydro-10H-pyrazolo[1,5-a]pyrido[2,2-c]pyrazine-12-carboxylic acid] yielded an EC50 in the series on HBV in 2.2.15 cells of less than 100 nM. The compound further returned a CC50 at 3 days in series [1] greater than 25 µM.
As to `CC(C)(C)[C@@H]1Cn2nc(-c3cccc4c3OCC4)cc2-c2cc(=O)c(C(=O)O)cn21` [Example 59, (R)-6-(tert-butyl)-2-(2,3-dihydrobenzofuran-7-yl)-10-oxo-5,6-dihydro-10H-pyrazolo[1,5-a]pyrido[2,2-c]pyrazine-12-carboxylic acid], the EC50 in the series with HBV in 2.2.15 cells is less than 100 nM. The compound also yielded a CC50 at 3 days in series [1] greater than 25 µM.
Take `CC(C)(C)[C@@H]1Cn2nc(-c3ccc(F)c(F)c3)cc2-c2cc(=O)c(C(=O)O)cn21` [Example 60, (R)-6-(tert-butyl)-2-(3,4-difluorophenyl)-10-oxo-5,6-dihydro-10H-pyrazolo[1,5-a]pyrido[2,2-c]pyrazine-12-carboxylic acid]: in the series on HBV in 2.2.15 cells, the EC50 was less than 100 nM. In series [1], the CC50 at 3 days is greater than 25 µM.
For `CC(C)(C)[C@@H]1Cn2nc(-c3cc(F)ccc3F)cc2-c2cc(=O)c(C(=O)O)cn21` [Example 61, (R)-6-(tert-butyl)-2-(2,5-difluorophenyl)-10-oxo-5,6-dihydro-10H-pyrazolo[1,5-a]pyrido[2,2-c]pyrazine-12-carboxylic acid], the EC50 in the series with HBV in 2.2.15 cells was less than 100 nM. Further, the CC50 at 3 days in series [1] was greater than 25 µM.
In the series with HBV in 2.2.15 cells, `Cc1cccc(C)c1-c1cc2n(n1)C[C@@H](C(C)(C)C)n1cc(C(=O)O)c(=O)cc1-2` [Example 62, (R)-6-(tert-butyl)-2-(2,6-dimethylphenyl)-10-oxo-5,6-dihydro-10H-pyrazolo[1,5-a]pyrido[2,2-c]pyrazine-12-carboxylic acid] showed an EC50 of 200 to 1000 nM. The compound also had a CC50 at 3 days in series [1] greater than 25 µM.
`CC(C)(C)[C@@H]1Cn2nc(-c3cccc4nsnc34)cc2-c2cc(=O)c(C(=O)O)cn21` [Example 63, (R)-2-(benzo[c][1,2,5]thiadiazol-4-yl)-6-(tert-butyl)-10-oxo-5,6-dihydro-10H-pyrazolo[1,5-a]pyrido[2,2-c]pyrazine-12-carboxylic acid] returned an EC50 in the series on HBV in 2.2.15 cells of less than 100 nM. The compound also returned a half-maximal cytotoxic concentration (CC50) at 3 days in series [1] greater than 25 µM.

The values above are taken from US12264159B2, “Functionalized heterocycles as antiviral agents” (Enanta Pharmaceuticals, Inc., priority 2018, dated 2025).
